In the test the target is T1, human PAH with the R408W mutation (Homo sapiens, UniProt P00439, R408W).
T1 construct: expressed in transfected cells
T1 sequence (P00439 1-452 R408W): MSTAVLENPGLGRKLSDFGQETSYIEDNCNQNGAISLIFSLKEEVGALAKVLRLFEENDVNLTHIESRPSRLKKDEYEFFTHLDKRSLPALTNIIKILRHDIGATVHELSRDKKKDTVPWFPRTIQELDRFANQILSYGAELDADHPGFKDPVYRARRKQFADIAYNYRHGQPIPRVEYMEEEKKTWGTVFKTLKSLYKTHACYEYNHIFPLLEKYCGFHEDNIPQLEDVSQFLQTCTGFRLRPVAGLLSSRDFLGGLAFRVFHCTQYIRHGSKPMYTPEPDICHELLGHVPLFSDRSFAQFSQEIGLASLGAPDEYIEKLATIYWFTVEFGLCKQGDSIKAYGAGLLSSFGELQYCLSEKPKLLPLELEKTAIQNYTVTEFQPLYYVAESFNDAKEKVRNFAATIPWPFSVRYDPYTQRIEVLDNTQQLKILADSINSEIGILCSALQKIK
In words: Cell Based Phenylalanine Flux Assay. The settings on record: A375 cells expressing human R408W PAH; 24 hrs compound incubation; 13C-Tyrosine by LC-MS; average where tested multiple times; read-out: AC50.

For the compound `O=C(c1cnc(-c2c(F)cccc2F)s1)N1CCc2[nH]cnc2[C@@H]1c1nc2c(F)cccc2s1` [Example 1503, (R)-(2-(2,6-difluorophenyl)thiazol-5-yl)(4-(4-fluorobenzo[d]thiazol-2-yl)-6,7-dihydro-1H-imidazo[4,5-c]pyridin-5(4H)-yl)methanone], the AC50 was under 500 nM.

On to `O=C(c1cnc(-c2c(F)cccc2F)s1)N1CCc2[nH]cnc2[C@H]1c1nc2c(F)cccc2s1` [Example 1504], for which the AC50 was under 500 nM.

Take `Cc1nc(-c2cnn(CC(F)(F)F)c2)oc1C(=O)N1CCc2[nH]cnc2[C@@H]1c1nc2c(F)cccc2s1` [Example 1505, (R)-(4-(4-fluorobenzo[d]thiazol-2-yl)-6,7-dihydro-1H-imidazo[4,5-c]pyridin-5(4H)-yl)(4-methyl-2-(1-(2,2,2-trifluoroethyl)-1H-pyrazol-4-yl)oxazol-5-yl)methanone]: the AC50 was in the range of 1000 to 5000 nM.

Consider `Cc1nc(-c2cnn(CC(F)(F)F)c2)oc1C(=O)N1CCc2[nH]cnc2[C@H]1c1nc2c(F)cccc2s1` [Example 1506, (S)-(4-(4-fluorobenzo[d]thiazol-2-yl)-6,7-dihydro-1H-imidazo[4,5-c]pyridin-5(4H)-yl)(4-methyl-2-(1-(2,2,2-trifluoroethyl)-1H-pyrazol-4-yl)oxazol-5-yl)methanone], for which the AC50 was under 500 nM.

For `CC(C)(O)c1nnc(C(=O)N2CCc3[nH]cnc3[C@@H]2c2nc3ccccc3s2)o1` [Example 1507, (R)-(4-(benzo[d]thiazol-2-yl)-6,7-dihydro-1H-imidazo[4,5-c]pyridin-5(4H)-yl)(5-(2-hydroxypropan-2-yl)-1,3,4-oxadiazol-2-yl)methanone], the AC50 was in the range of 1000 to 5000 nM.

On to `CC(C)(O)c1nnc(C(=O)N2CCc3[nH]cnc3[C@H]2c2nc3ccccc3s2)o1` [Example 1508], for which the AC50 lay in the range of 1000 to 5000 nM.

Take `O=C(c1cnc(-c2c(F)cccc2F)s1)N1CCc2[nH]cnc2[C@H]1c1nc2ccccc2s1` [Example 1509]: the AC50 was under 500 nM.

Take `O=C(c1cnc(-c2c(F)cccc2F)s1)N1CCc2[nH]cnc2[C@@H]1c1nc2ccccc2s1` [Example 1510, (R)-(4-(benzo[d]thiazol-2-yl)-6,7-dihydro-1H-imidazo[4,5-c]pyridin-5(4H)-yl)(2-(2,6-difluorophenyl)thiazol-5-yl)methanone]: the half-maximal activity concentration (AC50) is under 500 nM.

`CC(F)(F)c1ncc(C(=O)N2CCc3[nH]cnc3[C@H]2c2nc3ccccc3s2)s1` [Example 1511]: the AC50 was under 500 nM.

`CC(F)(F)c1ncc(C(=O)N2CCc3[nH]cnc3[C@@H]2c2nc3ccccc3s2)s1` [Example 1512, (R)-(4-(benzo[d]thiazol-2-yl)-6,7-dihydro-1H-imidazo[4,5-c]pyridin-5(4H)-yl)(2-(1,1-difluoroethyl)thiazol-5-yl)methanone]: the AC50 was 1000 to 5000 nM.

With `CC(F)(F)c1ncc(C(=O)N2CCc3[nH]cnc3[C@H]2c2nc3c(F)cccc3s2)s1` [Example 1513], the AC50 is under 500 nM.

Take `CC(F)(F)c1ncc(C(=O)N2CCc3[nH]cnc3[C@@H]2c2nc3c(F)cccc3s2)s1` [Example 1514, (R)-(2-(1,1-difluoroethyl)thiazol-5-yl)(4-(4-fluorobenzo[d]thiazol-2-yl)-6,7-dihydro-1H-imidazo[4,5-c]pyridin-5(4H)-yl)methanone]: the concentration at half-maximal activity (AC50) lay in the range of 1000 to 5000 nM.

Regarding `O=C(c1oc(-c2ccccn2)nc1C1CC1)N1CCc2[nH]cnc2[C@H]1c1nc2ccccc2s1` [Example 1515], the half-maximal activity concentration (AC50) was under 500 nM.

Regarding `O=C(c1oc(-c2ccccn2)nc1C1CC1)N1CCc2[nH]cnc2[C@@H]1c1nc2ccccc2s1` [Example 1516, (R)-(4-(benzo[d]thiazol-2-yl)-6,7-dihydro-1H-imidazo[4,5-c]pyridin-5(4H)-yl)(4-cyclopropyl-2-(pyridin-2-yl)oxazol-5-yl)methanone], the AC50 is over 5000 nM.

On to `Cn1cc(-c2nc(C3CC3)c(C(=O)N3CCc4[nH]cnc4[C@@H]3c3nc4ccccc4s3)o2)cn1` [Example 1517, (R)-(4-(benzo[d]thiazol-2-yl)-6,7-dihydro-1H-imidazo[4,5-c]pyridin-5(4H)-yl)(4-cyclopropyl-2-(1-methyl-1H-pyrazol-4-yl)oxazol-5-yl)methanone], for which the AC50 lay within 1000 to 5000 nM.

In the case of `Cn1cc(-c2nc(C3CC3)c(C(=O)N3CCc4[nH]cnc4[C@H]3c3nc4ccccc4s3)o2)cn1` [Example 1518], the concentration at half-maximal activity (AC50) is under 500 nM.

Take `Cc1nc(-c2ccccc2)c(C(=O)N2CCc3[nH]cnc3[C@@H]2c2nc3ccccc3s2)o1` [Example 1519, (R)-(4-(benzo[d]thiazol-2-yl)-6,7-dihydro-1H-imidazo[4,5-c]pyridin-5(4H)-yl)(2-methyl-4-phenyloxazol-5-yl)methanone]: the AC50 is over 5000 nM.

On to `Cc1nc(-c2ccccc2)c(C(=O)N2CCc3[nH]cnc3[C@H]2c2nc3ccccc3s2)o1` [Example 1520], for which the concentration at half-maximal activity (AC50) lay in the range of 500 to 1000 nM.

Take `O=C(c1cnc(C(F)F)s1)N1CCc2[nH]cnc2[C@H]1c1nc2ccccc2s1` [Example 1521]: the AC50 was under 500 nM.

Consider `O=C(c1cnc(C(F)F)s1)N1CCc2[nH]cnc2[C@@H]1c1nc2ccccc2s1` [Example 1522, (R)-(4-(benzo[d]thiazol-2-yl)-6,7-dihydro-1H-imidazo[4,5-c]pyridin-5(4H)-yl)(2-(difluoromethyl)thiazol-5-yl)methanone], for which the AC50 was 1000 to 5000 nM.

Turning to `O=C(c1ocnc1-c1ccccn1)N1CCc2[nH]cnc2[C@H]1c1nc2c(F)cccc2s1` [Example 1523, (S)-(4-(4-fluorobenzo[d]thiazol-2-yl)-6,7-dihydro-1H-imidazo[4,5-c]pyridin-5(4H)-yl)(4-(pyridin-2-yl)oxazol-5-yl)methanone], the AC50 fell in the range of 500 to 1000 nM.

`O=C(c1ocnc1-c1ccccn1)N1CCc2[nH]cnc2[C@@H]1c1nc2c(F)cccc2s1` [Example 1524, (R)-(4-(4-fluorobenzo[d]thiazol-2-yl)-6,7-dihydro-1H-imidazo[4,5-c]pyridin-5(4H)-yl)(4-(pyridin-2-yl)oxazol-5-yl)methanone]: the concentration at half-maximal activity (AC50) was over 5000 nM.

Take `Cn1nc(C(=O)N2CCc3[nH]cnc3[C@H]2c2nc3ccccc3s2)c2ccccc21` [Example 1525]: the AC50 lay in the range of 500 to 1000 nM.

`Cn1nc(C(=O)N2CCc3[nH]cnc3[C@@H]2c2nc3ccccc3s2)c2ccccc21` [Example 1526, (R)-(4-(benzo[d]thiazol-2-yl)-6,7-dihydro-1H-imidazo[4,5-c]pyridin-5(4H)-yl)(1-methyl-1H-indazol-3-yl)methanone]: the AC50 fell in the range of 1000 to 5000 nM.

As to `Cc1nc(C2CC2)oc1C(=O)N1CCc2[nH]cnc2[C@H]1c1nc2c(F)cccc2s1` [Example 1527], the half-maximal activity concentration (AC50) was under 500 nM.

On to `Cc1nc(C2CC2)oc1C(=O)N1CCc2[nH]cnc2[C@@H]1c1nc2c(F)cccc2s1` [Example 1528, (R)-(2-cyclopropyl-4-methyloxazol-5-yl)(4-(4-fluorobenzo[d]thiazol-2-yl)-6,7-dihydro-1H-imidazo[4,5-c]pyridin-5(4H)-yl)methanone], for which the AC50 lay within 1000 to 5000 nM.

Take `O=C(c1ccn2ncccc12)N1CCc2[nH]cnc2[C@H]1c1nc2ccccc2s1` [Example 1529]: the AC50 was in the range of 500 to 1000 nM.

Take `O=C(c1ccn2ncccc12)N1CCc2[nH]cnc2[C@@H]1c1nc2ccccc2s1` [Example 1530, (R)-(4-(benzo[d]thiazol-2-yl)-6,7-dihydro-1H-imidazo[4,5-c]pyridin-5(4H)-yl)(pyrrolo[1,2-b]pyridazin-5-yl)methanone]: the AC50 was over 5000 nM.

Consider `Cc1ocnc1CC(=O)N1CCc2[nH]cnc2[C@H]1c1nc2ccccc2s1` [Example 1531], for which the AC50 was under 500 nM.

Regarding `Cc1ocnc1CC(=O)N1CCc2[nH]cnc2[C@@H]1c1nc2ccccc2s1` [Example 1532, (R)-1-(4-(benzo[d]thiazol-2-yl)-6,7-dihydro-1H-imidazo[4,5-c]pyridin-5(4H)-yl)-2-(5-methyloxazol-4-yl)ethanone], the AC50 was over 5000 nM.

As to `Nc1nc(C(F)(F)F)c(C(=O)N2CCc3[nH]cnc3[C@H]2c2nc3ccccc3s2)o1` [Example 1533], the AC50 was under 500 nM.

For the compound `Nc1nc(C(F)(F)F)c(C(=O)N2CCc3[nH]cnc3[C@@H]2c2nc3ccccc3s2)o1` [Example 1534, (R)-(2-amino-4-(trifluoromethyl)oxazol-5-yl)(4-(benzo[d]thiazol-2-yl)-6,7-dihydro-1H-imidazo[4,5-c]pyridin-5(4H)-yl)methanone], the concentration at half-maximal activity (AC50) was in the range of 500 to 1000 nM.

As to `O=C(c1oc(-c2ccccn2)nc1C1CC1)N1CCc2[nH]cnc2[C@H]1c1nc2c(F)cccc2s1` [Example 1535], the AC50 is under 500 nM.

`O=C(c1oc(-c2ccccn2)nc1C1CC1)N1CCc2[nH]cnc2[C@@H]1c1nc2c(F)cccc2s1` [Example 1536, (R)-(4-cyclopropyl-2-(pyridin-2-yl)oxazol-5-yl)(4-(4-fluorobenzo[d]thiazol-2-yl)-6,7-dihydro-1H-imidazo[4,5-c]pyridin-5(4H)-yl)methanone]: the concentration at half-maximal activity (AC50) was in the range of 1000 to 5000 nM.

On to `CC(C)(O)c1nc(C2CC2)c(C(=O)N2CCc3[nH]cnc3[C@H]2c2nc3c(F)cccc3s2)o1` [Example 1537, (S)-(4-cyclopropyl-2-(2-hydroxypropan-2-yl)oxazol-5-yl)(4-(4-fluorobenzo[d]thiazol-2-yl)-6,7-dihydro-1H-imidazo[4,5-c]pyridin-5(4H)-yl)methanone], for which the AC50 was under 500 nM.

As for `CC(C)(O)c1nc(C2CC2)c(C(=O)N2CCc3[nH]cnc3[C@@H]2c2nc3c(F)cccc3s2)o1` [Example 1538, (R)-(4-cyclopropyl-2-(2-hydroxypropan-2-yl)oxazol-5-yl)(4-(4-fluorobenzo[d]thiazol-2-yl)-6,7-dihydro-1H-imidazo[4,5-c]pyridin-5(4H)-yl)methanone], the AC50 was in the range of 1000 to 5000 nM.

What is called AC50 is the concentration giving half of the maximal activity seen.
